Measured values from patent US5898069A, “Phosphate assay” (Medical Research Council, priority 1993, dated 1999).
Where “and” joins values, the source holds several entries; their conditions need not be identical. Equal entries are not always repeated. Where two headings read alike, the source gives them in different places.

Legend:
MDCC-PBP [1] = molecular target: T1, MDCC-PBP (Escherichia coli, UniProt P0AG82, A222C); assay type: binding, E. coli
T1 construct: A197 is located at position 197 numbering from the N-terminus of the mature PBP; made in house; host or cells: E. coli strain ANCC75, plasmid pSN5182/N, periplasm
T1 sequence (P0AG82 26-346 A222C): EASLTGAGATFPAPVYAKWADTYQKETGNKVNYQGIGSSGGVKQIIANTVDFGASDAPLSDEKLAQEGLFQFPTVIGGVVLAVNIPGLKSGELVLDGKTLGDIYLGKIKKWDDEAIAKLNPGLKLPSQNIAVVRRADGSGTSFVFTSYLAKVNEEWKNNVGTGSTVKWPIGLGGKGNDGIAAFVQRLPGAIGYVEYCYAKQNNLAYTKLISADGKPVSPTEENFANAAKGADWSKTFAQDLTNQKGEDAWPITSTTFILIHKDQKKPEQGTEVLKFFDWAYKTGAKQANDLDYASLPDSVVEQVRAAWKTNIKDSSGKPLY
Protocol: The Pi dependent fluorescence change was measured for a variety of conditions at a single concentration of Pi (Table 2).
(§1) The solutions contained 2 μM MDCCPBP (except for [b] 10 μM and [c]
The fluorescence change was measured at 465 nm with excitation at
[a] The solution was preincubated with the Pi mop.

MDCC-PBP [2] = molecular target: T1, MDCC-PBP; assay: Titration of arsenate in a solution of MDCC-PBP (fluorescence change); assay type: binding, E. coli; settings: read-out: dissociation constant
From the text: (§2) Because very small levels of Pi contamination can affect the observed change on adding Pi and because of variability in the protein activity, the maximum percent increase of fluorescence varies from 400-500%0 Although PBP is very specific for Pi (Luecke & Quiocho, 1990), it was to be used as a probe in the presence of other phosphate species, such as esters or purine nucleotides and so it was important to know at what levels these might interfere with Pi measurements. Several Pi analogues were also tested (Table 2) and only arsenate and vanadate produced significant increases. For a titration of arsenate in a solution of MDCC-PBP, the fluorescence change was used to obtain a dissociation constant of 3 μM. In all cases except arsenate, when subsequently Pi was added, the full fluorescent change was observed. The Pi dependent fluorescence change was measured for a variety of conditions at a single concentration of Pi (Table 2). The change is only slightly affected by pH (7-8) or ionic strength.

CPM-PBP = molecular target: T2, CPM-PBP (Escherichia coli, UniProt P0AG82, A222C); assay type: binding, E. coli
T2 construct: A197 is located at position 197 numbering from the N-terminus of the mature PBP; made in house; host or cells: E. coli strain ANCC75, plasmid pSN5182/N, periplasm
T2 sequence (P0AG82 26-346 A222C): as above
Protocol: Analysis of the effects of Pi analogues and solution composition was performed as for MDCC-PBP.

PBP mutant D292C = molecular target: T3, PBP mutant D292C (Escherichia coli, UniProt P0AG82, D317C); assay type: binding, E. coli
T3 construct: from the Nterminus of the mature protein; made in house; host or cells: E. coli strain ANCC75, plasmid pSN5182/N, periplasm
T3 sequence (P0AG82 26-346 D317C): as the sequence (P0AG82 26-346 A222C) above, with C197A, D292C counted along it
From the text: (e) Using the Pi mop, the fluorescence change was 65%.

[3] = tested on: purine nucleoside phosphorylase; assay: Phosphorolysis of 7-methyl guanosine by purine nucleoside phosphorylase (Pi mop), absorbance change at 260 nm; assay type: biochemical, bacterial; settings: pH 8.0, 20 mM Tris.HCl, 1 μM MgCl2, 30° C.
[4] = Pi dependent fluorescence change of labelled PBP in various solution compositions; assay type: binding; settings: for % fluorescence increase: 100 μM Pi added
Protocol: 3.2 μM MDCC-PBP was in 10 mM PIPES, 1 mM MgCl2 (pH 7.0) at 22° C. Pi was added to 50 μM;
as §2, §1
3.2 μM) in 20 mM PIPES (pH 7.0) except where indicated. The solutions
in B had 100 μM Pi added to produce the indicated fluorescence
change. […]

[5] = Fluorescence titration of Pi to labelled PBP to obtain the dissociation constant; assay type: binding; settings: for Kd: approximate
Protocol: The solution at 20° C. contained […] MDCC-PBP, 1 mM MgCl2, 10 mM PIPES pH 7.0. Aliquots of Pi were added and the fluorescence emission was measured at 465 nm with excitation at 425 nm. The data was corrected for the small amount of dilution;
The solution at 25° C. in 10 mM PIPES, pH 7.0, 1 mM MgCl2 contained 0.28 μM MDCC-PBP. Aliquots of Pi were added and the fluorescence emission was measured as in FIG. 3.
The fluorescence titrations of Pi with CPM-PBP (and MDCC-PBP) were fitted to the following equations using Enzfitter software:
Ratio of fluorescence at a given [Pi ] to that at zero Pi =(Q[Ep ]+[E]-[Ep ])/[E] where
[E ]P=([P]+[E]+K-√(([P]+[E]+K)^2 -4[P][E]))/2
[E]=concentration of CPM-PBP
Q=ratio of fluorescence for CPM-PBP.Pi to that for the unliganded CPM-PBP
The product was characterized in several ways. […] The dissociation constant was determined by titrating Pi at low [MDCC-PBP] and measuring fluorescence (FIG. 4). […] Because Pi binding is very tight, these dissociation constants can be considered only approximate: the fluorescence titration could not be done at sufficiently low concentrations to obtain accurate values of Kd.

[6] = Stopped-flow kinetics of Pi binding to labelled PBP and its release
Protocol: A. 0.1 μM MDCC-PBP (mixing chamber concentration) in 10 mM PIPES, pH 7.0 was rapidly mixed at 21° C. with different concentrations of Pi in this buffer in a stopped flow apparatus, while fluorescence emission was monitored using a 455 nm cut-off filter, with excitation at 436 nm using a mercury lamp. The curve show a time course with 0.25 μM Pi. […] The best-fit single exponential (65.3 s^-1) is shown by the dashed line, almost completely hidden by the experimental curve.
B. The release kinetics were measured by rapidly mixing 0.125 μM Pi, 0.25 μM MDCC-PBP with 10 μM wild-type PBP (mixing chamber concentrations) at 22° C. Other conditions were as above The best-fit single exponential (21.4 s^-1) is shown by the dashed line, almost completely hidden by the experimental curve;
In order to use the probe to measure Pi release from ATPases and GTPases in real time it was important to know the kinetics of Pi interaction with the labeled protein. Because of the fast rates only part of the exponential is observed: a significant proportion of the reaction occurs during the dead time of the instrument (i.e. the time taken for the solution to flow between mixing and the observation chamber).
The dissociation rate of the MDCC-PBP.Pi complex was measured directly in the stopped flow apparatus by rapid mixing of this complex with excess wild-type PBP. Pi is released from the fluorescent complex and binds to the wild-type protein with a rate constant limited by the rate of release (FIG. 6B). The observed rate was 21.3±0.1 (S.E.M.) s^-1 (22° C., […], pH 7.0) for wild-type concentrations from 1.25 to 10 μM, with 0.25 μM MDCC-PBP and 0.125 μM Pi. Because this rate is constant over a range of wild-type concentrations and because the rate is much slower than that expected for Pi binding, assuming the wild-type PBP has similar rate constant to the MDCC-PBP, the observed rate constant probably represents Pi release.

[7] = Storage stability of labelled protein; assay type: physicochemical
From the text: The Pi -sensitive labeled mutant, MDCC-PBP was purified further and tested as described in the Experimental Procedures to show it was a singly-labeled protein with no unlabeled protein or unbound fluorophore. The further purification is important as the unlabeled protein will also bind Pi. Unbound fluorophore would reduce the percentage fluorescence change by increasing the background and it might also slowly react with or bind to other components in the experimental system. The ion exchange chromatography separated MDCC-PBP completely from unlabeled PBP and unbound fluorophore. Thus the final labeled protein has a ratio of absorbance maxima, 280/430 nm of 1.8. The fluorescence excitation maximum is 425 nm and the emission maximum is 474 nm and the fluorescence change with excess Pi at pH 7.0 for the conditions in FIG. 2 is 5.3-fold with a shift of maximum emission to 464 nm. The labeled protein could be stored at […] and was stable on ice for at least 5 days.

[8] = Competition titration of MDCC-PBP.Pi with wild-type PBP; assay type: binding
[9] = addition 100 μM, 2 μM MDCC-PBP, 20 mM PIPES pH 7.0
[10] = addition 100 μM, 6 μM CPM-PBP, 10 mM Tris.HCl pH 8.0
[11] = addition 100 μM, preincubated with the Pi mop, 2 μM MDCC-PBP, 20 mM PIPES pH 7.0
[12] = addition 1 mM, 6 μM CPM-PBP, 10 mM Tris.HCl pH 8.0

O=[As]([O-])([O-])O.[Na+].[Na+] [Sodium arsenate]
% fluorescence increase (MDCC-PBP [1]; [9]): 313% | Kd (MDCC-PBP [2]): 3000 nM | % fluorescence increase (CPM-PBP; [10]): 25%

Nc1ncnc2c1ncn2[C@@H]1O[C@H](COP(=O)(O)OP(=O)(O)O)[C@@H](O)[C@H]1O [ADP]
% fluorescence increase (MDCC-PBP [1]; [11]): 3% | % fluorescence increase (CPM-PBP; [10]): 4%

Sodium vanadate
% fluorescence increase (MDCC-PBP [1]; [9]): 35% | % fluorescence increase (CPM-PBP; [10]): -2% | % fluorescence increase (CPM-PBP; addition 1.1 mM, 6 μM CPM-PBP, 10 mM Tris.HCl pH 8.0): -11%

O=C1C=CC(=O)N1c1ccc(Nc2ccc3cc(S(=O)(=O)O)ccc3c2)cc1 [MIANS, 2[4(1-maleimidyl)anilino]naphthalene6-sulfonic acid]
fluorescence change using the Pi mop (PBP mutant D292C): 65%

Nc1nc2c(ncn2[C@@H]2O[C@H](COP(=O)(O)OP(=O)(O)O)[C@@H](O)[C@H]2O)c(=O)[nH]1 [GDP]
% fluorescence increase (MDCC-PBP [1]; [11]): 3% | % fluorescence increase (CPM-PBP; [10]): 5%

O=P(O)(O)O [Pi, inorganic phosphate]
% fluorescence increase (MDCC-PBP [1]; pH 7): 430% | % fluorescence increase (CPM-PBP; pH 8): 65% | Km [3]: 34 µM

O=P(O)(O)OC[C@H]1OC(O)[C@H](O)[C@@H](O)[C@@H]1O (stereo partly shown) [Glucose-6-phosphate]
% fluorescence increase (MDCC-PBP [1]; [11]): 3% | % fluorescence increase (CPM-PBP; [10]): 4%

Nc1ncnc2c1ncn2[C@@H]1O[C@H](COP(=O)(O)OP(=O)(O)OP(=O)(O)O)[C@@H](O)[C@H]1O [ATP]
% fluorescence increase (MDCC-PBP [1]; addition 100 μM, preincubated with the Pi mop, 10 μM MDCC-PBP, 20 mM PIPES pH 7.0): 2% | % fluorescence increase (MDCC-PBP [1]; addition 1 mM, preincubated with the Pi mop, 10 μM MDCC-PBP, 20 mM PIPES pH 7.0): 11% | % fluorescence increase (CPM-PBP; [10]): 5% | % fluorescence increase (CPM-PBP; [12]): 13%

O=P(O)(O)OP(=O)(O)O [Pyrophosphate]
% fluorescence increase (MDCC-PBP [1]; pH 7): 6% | % fluorescence increase (CPM-PBP; pH 8): 5%

CC(OP(=O)(O)OP(=O)(O)OP(=O)(O)OC[C@H]1O[C@@H](n2cnc3c(N)ncnc32)[C@H](O)[C@@H]1O)c1ccccc1[N+](=O)[O-] (stereo partly shown) [NPE-caged ATP, P^31-(2-nitrophenyl)ethyl ATP]
% fluorescence increase (MDCC-PBP [1]; addition 5 mM, preincubated with the Pi mop, 10 μM MDCC-PBP, 20 mM PIPES pH 7.0): 0%

O=S(=O)([O-])[O-].[Na+].[Na+] [Sodium sulphate]
% fluorescence increase (MDCC-PBP [1]; addition 1 mM, 2 μM MDCC-PBP, 20 mM PIPES pH 7.0): 3% | % fluorescence increase (CPM-PBP; [12]): 0%

B1: MDCC-PBP (conjugate, UniProt P0AG82 26-346, looked up)
Phosphate-binding protein PstS: EASLTGAGATFPAPVYAKWADTYQKETGNKVNYQGIGSSGGVKQIIANTVDFGASDAPLSDEKLAQEGLFQFPTVIGGVVLAVNIPGLKSGELVLDGKTLGDIYLGKIKKWDDEAIAKLNPGLKLPSQNIAVVRRADGSGTSFVFTSYLAKVNEEWKNNVGTGSTVKWPIGLGGKGNDGIAAFVQRLPGAIGYVEYAYAKQNNLAYTKLISADGKPVSPTEENFANAAKGADWSKTFAQDLTNQKGEDAWPITSTTFILIHKDQKKPEQGTEVLKFFDWAYKTGAKQANDLDYASLPDSVVEQVRAAWKTNIKDSSGKPLY
modifications: MDCC fluorophore label
% fluorescence increase ([4]; 10 mM PIPES (pH 7.0), 1M NaCl, 3.2 μM MDCC-PBP): 350% | % fluorescence increase ([4]; 10 mM PIPES (pH 7.0), 2 μM MDCC-PBP): 430% | % fluorescence increase ([4]; 10 mM Tris-HCl (pH 8.0), 2 μM MDCC-PBP): 405% | fluorescence change with excess Pi ([4]; pH 7.0, FIG. 2: 3.2 μM MDCC-PBP, 10 mM PIPES, 1 mM MgCl2, 22° C., Pi 50 μM): 5.3 fold | maximum percent increase of fluorescence ([4]; varies with Pi contamination and protein activity): 400-500% | protein active (from linear fluorescence response to Pi) ([5]; FIG. 3, 20° C., 1 mM MgCl2, 10 mM PIPES pH 7.0): 75-80% | maximum fluorescence enhancement ([5]; FIG. 4, 25° C., 10 mM PIPES pH 7.0, 1 mM MgCl2, 0.28 μM MDCC-PBP): 415% | Kd ([5]; pH7.0): 30 nM | Kd ([5]; pH 8.0): 80 nM | Pi binding, best-fit single exponential ([6]; 0.1 μM MDCC-PBP, 0.25 μM Pi, 10 mM PIPES pH 7.0, 21° C.): 65.3 s⁻¹ | dissociation (Pi release) rate of labelled PBP.Pi complex ([6]; 22° C., PIPES pH 7.0, 0.25 μM MDCC-PBP, 0.125 μM Pi mixed with excess wild-type PBP (1.25 to 10 μM)): 21.3 ± 0.1 s⁻¹ and 21.4 s⁻¹ | k+ (Pi binding rate constant, one step binding model) ([6]; pH 7.0, [Pi]<5μM): 1.36e+08 M⁻¹ s⁻¹ | k- (from fit of observed binding rates) ([6]; pH 7.0, [Pi]<5μM, prone to error): 43 s⁻¹ | stable on ice [7]: at least 5 days

B2: wild-type PBP: E. coli phosphate binding protein (PBP), unlabelled wild-type (protein, UniProt P0AG82 26-346, looked up)
Phosphate-binding protein PstS: B1 Phosphate-binding protein PstS
relative affinity for Pi versus the labeled mutant (MDCC-PBP) [8]: two-fold tighter
